Experimental data from the OligoGym collection.
Values joined by “and” are separate entries in the source; they are usually repeats but may differ in a detail not shown here. Identical values can stand only once. After the bases stand the sugars from the 5' end (letter, count) and the backbone: PS all phosphorothioate, else s phosphorothioate and o phosphodiester by linkage. Methylation of C is not given here. e = 2'-O-(2-methoxyethyl) (MOE); k = constrained ethyl (cEt); d = 2'-deoxy (DNA)

Target: SOD1
Details: ASO

Sequence “TCGCCCTTCAGCACGCA (sugars e3 k2 d7 k2 e3, PS)” has a target mRNA inhibition (HepG2, 3 µM) of 31%.

For “GATACATTTCTACAGCT (sugars e3 k2 d7 k2 e3, PS)”, the target mRNA inhibition (HepG2, 3 µM) was 40%.

With “GTGTTTAATGTTTATC (sugars ekddddddddekekee, linkages s1 o1 s8 o3 s2)” the target mRNA inhibition (A431, 0.12 µM) was 10%, the target mRNA inhibition (A431, 0.6 µM) was 32% and the target mRNA inhibition (A431, 3 µM) was 66%. For the same sequence, the target mRNA inhibition (A431, 15 µM) was 79%, the target mRNA inhibition (HepG2, 0.222 µM) was 40% and the target mRNA inhibition (HepG2, 0.667 µM) was 63%. For the same sequence, the target mRNA inhibition (HepG2, 2 µM) was 76% and the target mRNA inhibition (HepG2, 6 µM) was 86%.

“TCACTACAGGTACTTTA (sugars e2 k2 d8 k2 e3, PS)” was tested, and the target mRNA inhibition (HepG2, 5 µM) was 27%.

“ATAATAAGTGCCATACAGGG (sugars e5 d10 e5, PS)” showed a target mRNA inhibition (HepG2, 5 µM) of 18%.

In the case of “AAAATACAGGTCATTGA (sugars e3 k2 d7 k2 e3, PS)”, the target mRNA inhibition (HepG2, 3 µM) is reported as 28%.

In the case of “TAATACCCATCTGTGAT (sugars e2 k2 d8 k2 e3, PS)”, the target mRNA inhibition (HepG2, 5 µM) is reported as 25%.

“AGTGCCATACAGGGTTT (sugars e2 k2 d9 k2 e2, PS)” gave a target mRNA inhibition (HepG2, 5 µM) of 27%.

“CTTCTGCTCGAAATTGATGA (sugars e5 d10 e5, PS)” was tested, and the target mRNA inhibition (HepG2, 4 µM) was 11%.

Work on “TCCACCTTTGCCCAAGT (sugars e3 k2 d7 k2 e3, PS)” yielded a target mRNA inhibition (HepG2, 3 µM) of 88%.

“ATCCATGCAGGCCTTCA (sugars e3 k2 d7 k2 e3, PS)” showed a target mRNA inhibition (HepG2, 3 µM) of 27%.

In the case of “TTAATACCCATCTGTGA (sugars e2 k2 d8 k2 e3, PS)”, the target mRNA inhibition (HepG2, 5 µM) is reported as 28%.

Work on “TCATAATAAGTGCCATA (sugars e2 k2 d9 k2 e2, PS)” yielded a target mRNA inhibition (HepG2, 5 µM) of 34%.

In the case of “ACTCATGAACATGGAATCCA (sugars e5 d10 e5, PS)”, the target mRNA inhibition (HepG2, 5 µM) is reported as 27% and 20%.

“GACGCAAACCAGCACCCCGT (sugars e5 d10 e5, PS)” gave a target mRNA inhibition (HepG2, 4 µM) of 45%.

For “CAGGATAACAGATGAGT (sugars e3 k2 d7 k2 e3, PS)”, the target mRNA inhibition (HepG2, 0.1875 µM) was 45%, the target mRNA inhibition (HepG2, 0.75 µM) was 72% and the target mRNA inhibition (HepG2, 3 µM) was 65% and 86%. For the same sequence, the target mRNA inhibition (HepG2, 12 µM) was 92%.

For “TTCCCCACACCTTCAC (sugars kekeddddddddekek, linkages s1 o3 s8 o1 s2)”, the target mRNA inhibition (A431, 0.12 µM) was 4%, the target mRNA inhibition (A431, 0.6 µM) was 12% and the target mRNA inhibition (A431, 3 µM) was 5%. It also gave a target mRNA inhibition (A431, 15 µM) of 12%, a target mRNA inhibition (HepG2, 0.222 µM) of 6% and a target mRNA inhibition (HepG2, 0.667 µM) of 16%. The target mRNA inhibition (HepG2, 2 µM) was 20% and the target mRNA inhibition (HepG2, 6 µM) was 59%.

Sequence “CGATCCCAATTACACCA (sugars e2 k2 d9 k2 e2, PS)” has a target mRNA inhibition (HepG2, 4 µM) of 59%.

With “TTAGTTTGAATTTGGAT (sugars e2 k2 d9 k2 e2, PS)” the target mRNA inhibition (HepG2, 5 µM) was 16%.

In the case of “CAGGTCATTGAAACAGA (sugars e3 k2 d7 k2 e3, PS)”, the target mRNA inhibition (HepG2, 3 µM) is reported as 14%.

With “TTCTCACTACAGGTACT (sugars e2 k2 d8 k2 e3, PS)” the target mRNA inhibition (HepG2, 5 µM) was 26%.

Sequence “TCACACAATTACACTTTTAA (sugars e5 d10 e5, PS)” has a target mRNA inhibition (HepG2, 5 µM) of 15%.

“TGTTTATCAGGATACATTTC (sugars e5 d10 e5, PS)” was tested, and the target mRNA inhibition (HepG2, 5 µM) was 52%.

“CACGCCGAGGTCCTGGTTCC (sugars e5 d10 e5, PS)” was tested, and the target mRNA inhibition (HepG2, 4 µM) was 23%.

Work on “GATACATTTCTACAGC (sugars ekddddddddekekee, linkages s1 o1 s8 o3 s2)” yielded a target mRNA inhibition (A431, 0.12 µM) of 0%, a target mRNA inhibition (A431, 0.6 µM) of 0% and a target mRNA inhibition (A431, 3 µM) of 0%. It also gave a target mRNA inhibition (A431, 15 µM) of 18%, a target mRNA inhibition (HepG2, 0.222 µM) of 40% and a target mRNA inhibition (HepG2, 0.667 µM) of 60%. The target mRNA inhibition (HepG2, 2 µM) was 80% and the target mRNA inhibition (HepG2, 6 µM) was 93%.

Sequence “GCGGCCAATGATGCAATGGT (sugars e5 d10 e5, PS)” has a target mRNA inhibition (HepG2, 5 µM) of 13%.

In the case of “CTTTTTCATGGACCACCAGT (sugars e5 d10 e5, PS)”, the target mRNA inhibition (HepG2, 5 µM) is reported as 9%.

“TAATAAGTGCCATACAG (sugars e2 k2 d8 k2 e3, PS)” showed a target mRNA inhibition (HepG2, 5 µM) of 22%.

“TACAAATCTTCCAAGTG (sugars e3 k2 d7 k2 e3, PS)” gave a target mRNA inhibition (HepG2, 3 µM) of 17%.

Sequence “TACATTTCTACAGCTA (sugars kekeddddddddekek, linkages s1 o3 s8 o1 s2)” has a target mRNA inhibition (A431, 0.12 µM) of 0%, a target mRNA inhibition (A431, 0.6 µM) of 13% and a target mRNA inhibition (A431, 3 µM) of 36%. For the same sequence, the target mRNA inhibition (A431, 15 µM) was 59%.

In the case of “AGATTACAGTGTTTAAT (sugars e2 k2 d8 k2 e3, PS)”, the target mRNA inhibition (HepG2, 0.1875 µM) is reported as 16%, the target mRNA inhibition (HepG2, 0.75 µM) is reported as 50% and the target mRNA inhibition (HepG2, 3 µM) is reported as 62%. It also gave a target mRNA inhibition (HepG2, 5 µM) of 68% and a target mRNA inhibition (HepG2, 12 µM) of 77%.

“CGCCCTTCAGCACGCAC (sugars e2 k2 d9 k2 e2, PS)” showed a target mRNA inhibition (HepG2, 0.1875 µM) of 12%, a target mRNA inhibition (HepG2, 0.75 µM) of 47% and a target mRNA inhibition (HepG2, 3 µM) of 79%. The target mRNA inhibition (HepG2, 4 µM) was 73% and the target mRNA inhibition (HepG2, 12 µM) was 94%.

In the case of “AGACACATCGGCCACAC (sugars e3 k2 d7 k2 e3, PS)”, the target mRNA inhibition (HepG2, 3 µM) is reported as 21%.

“ATGGAATCCATGCAGGC (sugars e3 k2 d7 k2 e3, PS)” gave a target mRNA inhibition (HepG2, 3 µM) of 9%.
